From PubChem BioAssay AID1745844 (Carcinogenic Potency Database (CPDB), 2022)
Activity calls are given as the source filed them. No rule for the calls is given here.

Test system: rodent lifetime carcinogenesis bioassay, tumor incidence TD50
Experiment: carcinogenic potency in animals, long-term in vivo studies, CPDB compilation (AID 1745844)

## Nc1ccccc1
mouse, strain B6C3F1, females, in feed, site: any site (literature study), lesion: several types, types named in the paper, dosed 103 weeks, study length 107 weeks
  TD50: 9150 mg/kg/day (inactive)
mouse, strain B6C3F1, females, in feed, site: liver, lesion: hepatocellular adenoma + hepatocellular carcinoma + neoplastic nodule, dosed 103 weeks, study length 107 weeks
  TD50: 8850 mg/kg/day
mouse, strain B6C3F1, males, in feed, site: any site (literature study), lesion: several types, types named in the paper, dosed 103 weeks, study length 107 weeks
  carcinogen call: negative (inactive)
rat, strain Fischer 344, females, in feed, site: liver, lesion: hepatocellular adenoma + hepatocellular carcinoma + neoplastic nodule, dosed 103 weeks, study length 107 weeks
  TD50: 13000 mg/kg/day
rat, strain Fischer 344, females, in feed, site: multiple organs + spleen, lesion: fibrosarcoma + sarcoma, NOS, dosed 103 weeks, study length 107 weeks
  TD50: 1740 mg/kg/day
rat, strain Fischer 344, males, in feed, site: adrenal gland, lesion: pheochromocytoma + pheochromocytoma, malignant, dosed 103 weeks, study length 107 weeks
  TD50: 556 mg/kg/day
rat, strain Fischer 344, males, in feed, site: any site (literature study), lesion: several types, types named in the paper, dosed 103 weeks, study length 107 weeks
  TD50: 124 mg/kg/day
rat, strain Fischer 344, males, in feed, site: body cavities + multiple organs + spleen, lesion: mesothelioma, NOS + fibrosarcoma + hemangiosarcoma + sarcoma, NOS, dosed 103 weeks, study length 107 weeks
  TD50: 88 mg/kg/day
rat, strain Fischer 344, males, in feed, site: body cavities + multiple organs + spleen, lesion: mesothelioma, NOS + fibrosarcoma + sarcoma, NOS, dosed 103 weeks, study length 107 weeks
  TD50: 263 mg/kg/day
rat, strain Fischer 344, males, in feed, site: body cavities + multiple organs + spleen, lesion: mesothelioma, NOS + hemangiosarcoma, dosed 103 weeks, study length 107 weeks
  TD50: 146 mg/kg/day
rat, strain Fischer 344, males, in feed, site: body cavities + multiple organs, lesion: mesothelioma, NOS + fibrosarcoma + sarcoma, NOS, dosed 103 weeks, study length 107 weeks
  TD50: 572 mg/kg/day
rat, strain Fischer 344, males, in feed, site: spleen, lesion: fibrosarcoma + sarcoma, NOS, dosed 103 weeks, study length 107 weeks
  TD50: 451 mg/kg/day
rat, strain Fischer 344, males, in feed, site: spleen, lesion: hemangiosarcoma, dosed 103 weeks, study length 107 weeks
  TD50: 160 mg/kg/day

## C[C@H]1CCCCN1N=O
rat, strain Sprague-Dawley, both sexes, in drinking water, site: any site (literature study), lesion: malignant tumor, dosed 104 weeks, study length 104 weeks
  TD50: 13.2 mg/kg/day
rat, strain Sprague-Dawley, both sexes, in drinking water, site: liver, lesion: liver-cell carcinoma, dosed 104 weeks, study length 104 weeks
  TD50: 61.2 mg/kg/day
rat, strain Sprague-Dawley, both sexes, in drinking water, site: liver, lesion: several types, types named in the paper, dosed 104 weeks, study length 104 weeks
  TD50: 49.4 mg/kg/day
rat, strain Sprague-Dawley, both sexes, in drinking water, site: several sites, sites named in the paper, lesion: ependymoblastoma, dosed 104 weeks, study length 104 weeks
  TD50: 34.5 mg/kg/day

## CCOC(=O)/C(Cl)=N/Nc1ccccc1
mouse, strain B6C3F1, females, in feed, site: pituitary gland, lesion: adenoma, NOS, dosed 103 weeks, study length 104 weeks
  TD50: 20200 mg/kg/day (inactive)
mouse, strain B6C3F1, females, in feed, site: uterus, lesion: endometrial stromal polyp, dosed 103 weeks, study length 104 weeks
  TD50: 86500 mg/kg/day
mouse, strain B6C3F1, males, in feed, site: lung, lesion: alveolar/bronchiolar adenoma, dosed 103 weeks, study length 104 weeks
  TD50: 7160 mg/kg/day (inactive)
rat, strain Fischer 344, females, in feed, site: adrenal gland, lesion: cortical adenoma, dosed 103 weeks, study length 105 weeks
  TD50: 11900 mg/kg/day (inactive)
rat, strain Fischer 344, females, in feed, site: any site (literature study), lesion: several types, types named in the paper, dosed 103 weeks, study length 105 weeks
  TD50: 29500 mg/kg/day
rat, strain Fischer 344, males, in feed, site: any site (literature study), lesion: several types, types named in the paper, dosed 103 weeks, study length 105 weeks
  carcinogen call: negative (inactive)
rat, strain Fischer 344, males, in feed, site: liver, lesion: hepatocellular adenoma + hepatocellular carcinoma + neoplastic nodule, dosed 103 weeks, study length 105 weeks
  TD50: 516000 mg/kg/day

## C=COC(C)=O
mouse, strain Charles River CD1, males, inhaled, site: lung, lesion: squamous-cell carcinoma, dosed 104 weeks, study length 104 weeks
  TD50: 32000 mg/kg/day
mouse, strain Swiss, females, in drinking water, site: Zymbal's gland, lesion: carcinoma, dosed 78 weeks, study length 151 weeks
  TD50: 36000 mg/kg/day
mouse, strain Swiss, females, in drinking water, site: any site (literature study), lesion: benign tumor, dosed 78 weeks, study length 151 weeks
  TD50: 2030 mg/kg/day
mouse, strain Swiss, females, in drinking water, site: any site (literature study), lesion: malignant tumor, dosed 78 weeks, study length 151 weeks
  TD50: 3440 mg/kg/day
mouse, strain Swiss, females, in drinking water, site: esophagus, lesion: acanthoma, dosed 78 weeks, study length 151 weeks
  TD50: 36000 mg/kg/day
mouse, strain Swiss, females, in drinking water, site: esophagus, lesion: squamous-cell carcinoma, dosed 78 weeks, study length 151 weeks
  TD50: 5640 mg/kg/day
mouse, strain Swiss, females, in drinking water, site: forestomach, lesion: acanthoma, dosed 78 weeks, study length 151 weeks
  TD50: 6850 mg/kg/day
mouse, strain Swiss, females, in drinking water, site: forestomach, lesion: squamous-cell carcinoma, dosed 78 weeks, study length 151 weeks
  TD50: 11700 mg/kg/day
mouse, strain Swiss, females, in drinking water, site: lung, lesion: adenocarcinoma, dosed 78 weeks, study length 151 weeks
  TD50: 29900 mg/kg/day
mouse, strain Swiss, females, in drinking water, site: lung, lesion: adenoma, dosed 78 weeks, study length 151 weeks
  TD50: 11700 mg/kg/day
mouse, strain Swiss, females, in drinking water, site: lung, lesion: several types, types named in the paper, dosed 78 weeks, study length 151 weeks
  TD50: 7640 mg/kg/day
mouse, strain Swiss, females, in drinking water, site: oral cavity, lesion: squamous-cell carcinoma, dosed 78 weeks, study length 151 weeks
  TD50: 36000 mg/kg/day
mouse, strain Swiss, females, in drinking water, site: stomach, lesion: adenocarcinoma, dosed 78 weeks, study length 151 weeks
  TD50: 36000 mg/kg/day
mouse, strain Swiss, females, in drinking water, site: tongue, lesion: squamous-cell carcinoma, dosed 78 weeks, study length 151 weeks
  TD50: 8760 mg/kg/day
mouse, strain Swiss, females, in drinking water, site: uterus, lesion: adenocarcinoma, dosed 78 weeks, study length 151 weeks
  TD50: 5570 mg/kg/day
mouse, strain Swiss, females, in drinking water, site: uterus, lesion: leiomyoma, dosed 78 weeks, study length 151 weeks
  TD50: 26100 mg/kg/day
mouse, strain Swiss, females, in drinking water, site: uterus, lesion: leiomyosarcoma, dosed 78 weeks, study length 151 weeks
  TD50: 26100 mg/kg/day
mouse, strain Swiss, females, in drinking water, site: uterus, lesion: malignant tumor, dosed 78 weeks, study length 151 weeks
  TD50: 3920 mg/kg/day
mouse, strain Swiss, males, in drinking water, site: any site (literature study), lesion: benign tumor, dosed 78 weeks, study length 135 weeks
  TD50: 6040 mg/kg/day
mouse, strain Swiss, males, in drinking water, site: any site (literature study), lesion: malignant tumor, dosed 78 weeks, study length 135 weeks
  TD50: 552 mg/kg/day
mouse, strain Swiss, males, in drinking water, site: forestomach, lesion: acanthoma, dosed 78 weeks, study length 135 weeks
  TD50: 9330 mg/kg/day
mouse, strain Swiss, males, in drinking water, site: lung, lesion: adenocarcinoma, dosed 78 weeks, study length 135 weeks
  TD50: 68200 mg/kg/day
mouse, strain Swiss, males, in drinking water, site: lung, lesion: adenoma, dosed 78 weeks, study length 135 weeks
  TD50: 5750 mg/kg/day
mouse, strain Swiss, males, in drinking water, site: lung, lesion: several types, types named in the paper, dosed 78 weeks, study length 135 weeks
  TD50: 28000 mg/kg/day
mouse, strain Swiss, males, in drinking water, site: oral cavity, lesion: squamous-cell carcinoma, dosed 78 weeks, study length 135 weeks
  TD50: 9330 mg/kg/day
mouse, strain Swiss, males, in drinking water, site: stomach, lesion: adenocarcinoma, dosed 78 weeks, study length 135 weeks
  TD50: 9330 mg/kg/day
mouse, strain Swiss, males, in drinking water, site: tongue, lesion: squamous-cell carcinoma, dosed 78 weeks, study length 135 weeks
  TD50: 9330 mg/kg/day
rat, strain Charles River CD (Sprague-Dawley), females, inhaled, site: larynx, lesion: squamous-cell carcinoma, dosed 104 weeks, study length 104 weeks
  TD50: 9050 mg/kg/day
rat, strain Charles River CD (Sprague-Dawley), females, inhaled, site: nose, lesion: squamous-cell carcinoma, dosed 104 weeks, study length 104 weeks
  TD50: 2220 mg/kg/day
rat, strain Charles River CD (Sprague-Dawley), males, inhaled, site: nose, lesion: benign tumor, dosed 104 weeks, study length 104 weeks
  TD50: 1240 mg/kg/day
rat, strain Charles River CD (Sprague-Dawley), males, inhaled, site: nose, lesion: carcinoma, in situ, dosed 104 weeks, study length 104 weeks
  TD50: 6310 mg/kg/day
rat, strain Charles River CD (Sprague-Dawley), males, inhaled, site: nose, lesion: malignant tumor, dosed 104 weeks, study length 104 weeks
  TD50: 2080 mg/kg/day
rat, strain Charles River CD (Sprague-Dawley), males, inhaled, site: nose, lesion: papilloma, inverted, dosed 104 weeks, study length 104 weeks
  TD50: 1550 mg/kg/day
rat, strain Charles River CD (Sprague-Dawley), males, inhaled, site: nose, lesion: several types, types named in the paper, dosed 104 weeks, study length 104 weeks
  TD50: 758 mg/kg/day
rat, strain Charles River CD (Sprague-Dawley), males, inhaled, site: nose, lesion: squamous-cell carcinoma, dosed 104 weeks, study length 104 weeks
  TD50: 3140 mg/kg/day
rat, strain Fischer 344, females, in drinking water, site: liver, lesion: neoplastic nodule, dosed 100 weeks, study length 130 weeks
  TD50: 488 mg/kg/day
rat, strain Fischer 344, females, in drinking water, site: thyroid gland, lesion: c-cell adenoma, dosed 100 weeks, study length 130 weeks
  TD50: 420 mg/kg/day
rat, strain Fischer 344, females, in drinking water, site: thyroid gland, lesion: c-cell carcinoma, dosed 100 weeks, study length 130 weeks
  TD50: 25500 mg/kg/day
rat, strain Fischer 344, females, in drinking water, site: uterus, lesion: adenocarcinoma, dosed 100 weeks, study length 130 weeks
  TD50: 494 mg/kg/day
rat, strain Fischer 344, males, in drinking water, site: any site (literature study), lesion: several types, types named in the paper, dosed 100 weeks, study length 130 weeks
  TD50: 57.7 mg/kg/day
rat, strain Fischer 344, males, in drinking water, site: liver, lesion: neoplastic nodule, dosed 100 weeks, study length 130 weeks
  TD50: 132 mg/kg/day
rat, strain Fischer 344, males, in drinking water, site: thyroid gland, lesion: c-cell carcinoma, dosed 100 weeks, study length 130 weeks
  carcinogen call: positive

## CCCCNNCCCC
mouse, strain Swiss albino, females, in drinking water, site: all sites, lesion: malignant lymphoma, dosed 93 weeks, study length 93 weeks
  TD50: 198 mg/kg/day
mouse, strain Swiss albino, females, in drinking water, site: liver, lesion: angioma, dosed 93 weeks, study length 93 weeks
  carcinogen call: negative (inactive)
mouse, strain Swiss albino, females, in drinking water, site: liver, lesion: angiosarcoma, dosed 93 weeks, study length 93 weeks
  carcinogen call: negative (inactive)
mouse, strain Swiss albino, females, in drinking water, site: lung, lesion: several types, types named in the paper, dosed 93 weeks, study length 93 weeks
  TD50: 69.8 mg/kg/day
mouse, strain Swiss albino, males, in drinking water, site: all sites, lesion: malignant lymphoma, dosed 87 weeks, study length 87 weeks
  TD50: 886 mg/kg/day
mouse, strain Swiss albino, males, in drinking water, site: kidney, lesion: several types, types named in the paper, dosed 87 weeks, study length 87 weeks
  TD50: 449 mg/kg/day
mouse, strain Swiss albino, males, in drinking water, site: liver, lesion: angioma, dosed 87 weeks, study length 87 weeks
  carcinogen call: negative (inactive)
mouse, strain Swiss albino, males, in drinking water, site: liver, lesion: angiosarcoma, dosed 87 weeks, study length 87 weeks
  carcinogen call: negative (inactive)
mouse, strain Swiss albino, males, in drinking water, site: lung, lesion: several types, types named in the paper, dosed 87 weeks, study length 87 weeks
  TD50: 34.5 mg/kg/day

## O=C(O)c1ccc(O)c(O)c1
hamster, strain Syrian Golden, females, in feed, site: liver, lesion: one or several types, types not named, dosed 49 weeks, study length 52 weeks
  carcinogen call: negative (inactive)
hamster, strain Syrian Golden, females, in feed, site: lung, lesion: one or several types, types not named, dosed 49 weeks, study length 52 weeks
  carcinogen call: negative (inactive)
